According to patent US7268232B2 (Acadia Pharmaceuticals Inc., priority 2004, dated 2007):
Where a name gives a salt, the structure may show the parent alone.

Experiments:
Androgen AR receptor = molecular target: T1, Androgen AR receptor (Homo sapiens, UniProt P10275); assay: Receptor Selection and Amplification (R-SAT) assay, androgen receptor agonist activity; format: cell-based; conditions: for Emax: NIH3T3, read-out: % Efficacy
T1 construct: expressed in transfected cells; host or cells: NIH3T3 cells
T1 sequence (P10275 1-920): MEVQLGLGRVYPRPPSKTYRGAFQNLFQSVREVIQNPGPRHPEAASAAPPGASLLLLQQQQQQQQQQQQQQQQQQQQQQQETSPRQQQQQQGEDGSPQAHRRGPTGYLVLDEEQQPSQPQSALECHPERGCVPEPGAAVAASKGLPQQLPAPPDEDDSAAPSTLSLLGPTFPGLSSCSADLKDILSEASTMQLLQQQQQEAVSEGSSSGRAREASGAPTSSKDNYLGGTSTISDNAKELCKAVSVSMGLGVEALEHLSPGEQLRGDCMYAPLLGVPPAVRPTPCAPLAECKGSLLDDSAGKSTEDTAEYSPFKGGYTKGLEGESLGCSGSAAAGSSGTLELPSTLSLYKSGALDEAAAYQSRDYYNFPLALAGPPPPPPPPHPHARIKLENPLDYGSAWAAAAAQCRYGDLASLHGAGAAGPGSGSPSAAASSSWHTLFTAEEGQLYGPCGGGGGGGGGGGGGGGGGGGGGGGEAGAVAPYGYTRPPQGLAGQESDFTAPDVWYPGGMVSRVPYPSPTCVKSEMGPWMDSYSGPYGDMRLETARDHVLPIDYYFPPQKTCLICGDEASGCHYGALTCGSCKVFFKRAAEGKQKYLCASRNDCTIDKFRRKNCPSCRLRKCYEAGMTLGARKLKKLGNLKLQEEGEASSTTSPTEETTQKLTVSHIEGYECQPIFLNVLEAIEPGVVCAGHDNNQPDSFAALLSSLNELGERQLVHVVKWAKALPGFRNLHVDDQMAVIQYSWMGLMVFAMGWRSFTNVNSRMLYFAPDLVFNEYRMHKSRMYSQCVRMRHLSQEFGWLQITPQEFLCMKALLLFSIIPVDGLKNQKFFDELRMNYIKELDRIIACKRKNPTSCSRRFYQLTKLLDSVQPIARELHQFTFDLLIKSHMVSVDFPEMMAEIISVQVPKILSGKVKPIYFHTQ
Procedure: Receptor Selection and Amplification (R-SAT) Assays. The functional receptor assay, Receptor Selection and Amplification Technology (R-SAT™), was used with minor modifications from the procedure described previously (Brann, M. R. U.S. Pat. No. 5,707,798, 1998) to screen compounds for efficacy at the Androgen AR receptor. Briefly, NIH3T3 cells were grown in roller bottles to 70-80% confluence. Cells were then transfected for 12-16 h with plasmid DNAs using Polyfect (Qiagen Inc.) as per the manufacturer's protocol. R-SAT assays were typically performed by transfecting 30 ug/bottle of receptor and 50 ug/bottle of β-galactosidase plasmid DNA. All receptor and helper constructs used were in mammalian expression vectors. Helpers are defined as signaling molecules that modulate both ligand-dependent and/or ligand-independent function of the AR receptor, typically co-activators. NIH3T3 cells were transfected for 12-16 h, then trypsinized and frozen in DMSO. Frozen cells were later thawed, plated at 10,000-40,000 cells per well of a 96 well plate containing drug. Cells were then grown in a humidified atmosphere with 5% ambient CO2 for five days. Media was then removed from the plates and marker gene activity was measured by the addition of the β-galactosidase substrate o-nitrophenyl β-D-galactopyranoside (ONPG, in PBS with 5% NP-40). The resulting colorimetric reaction was measured in a spectrophotometric plate reader (Titertek Inc.) at […]. All data were analyzed using the computer program XLFit (IDBSm).

[1] = test system: castrated male Sprague Dawley rats; assay: Wet tissue weights (prostate, seminal vesicle, levator ani muscle) after daily s.c. administration for two weeks; format: in vivo, rat; conditions: for wet weight of prostate / wet weight of seminal vesicle: castrated rats
Procedure: (§1) Androgen Receptor agonist 116BG33 was administered s.c. daily for two weeks to castrated male Sprague Dawley rats (n=3). The effects of 116BG33 (3, 10, 30 mg/kg) were compared to testosterone propionate (0.1 and 1 mg/kg; positive control) and vehicle (10% Tween80; negative control). Blood and wet weights of prostate gland and seminal vesicle were measured after sacrifice that occurred 24 hours after the last dose. Blood was collected in heparin collection tubes after sacrifice that occurred 24 hours after the last dose. Blood was centrifuged and plasma collected and plasma samples frozen.

[2] = test system: castrated male Sprague Dawley rats; assay: Rat luteinizing hormone (LH) plasma levels by ELISA after daily s.c. administration for 14 days; format: in vivo; conditions: for dose at which complete reversal of plasma LH levels is evident: s.c. daily for 14 days
Procedure: as §1
Rat luteinizing hormone (LH) plasma levels were determined using an enzyme linked immunoabsorbent assay (ELISA) from Amersham as per manufacturer's instructions. The solid phase assay is based on the competition between unlabeled rLH and a fixed quantity of biotin labelled rLH for a limited amount of rLH specific antibody. A conjugate streptavidin/peroxidase allows for signal amplification and detection in presence of the substrate.

[3] = 0.1 mg/kg s.c. daily for two weeks, compared to vehicle
[4] = 1 mg/kg s.c. daily for two weeks, compared to vehicle
[5] = 3, 10 or 30 mg/kg s.c. daily for two weeks, compared to vehicle

CC1C=CC(C)N1c1ccc(C#N)c2ccccc12 (stereo not drawn) [196MBT2-7, 4-(2,5-Dimethyl-2,5-dihydropyrrol-1-yl)naphthalene-1-carbonitrile]
EC50 (Androgen AR receptor): 7.94 nM
Emax (Androgen AR receptor): 85%

N#Cc1ccc(N2[C@@H]3CC[C@H]2CC(O)C3)c2ccccc12 (stereo partly drawn) [154BG31, 4-(3-endo-Hydroxy-8-azabicyclo[3.2.1]oct-8-yl)naphthalene-1-carbonitrile]
wet tissue weights (prostate, seminal vesicle, levator ani muscle) ([1]; 3 mg/kg s.c. daily for two weeks): did not appear to significantly alter
dose relative to TP at which negative side effects (increased seminal vesicle and prostate size) become evident ([1]; compared to TP): at least 100 × of TP
wet tissue weights (prostate, seminal vesicle, levator ani muscle) ([1]; higher doses (3 and 10 mg/kg) daily, not to the extent of TP): appeared to significantly increase
dose at which complete reversal of plasma LH levels is evident [2]: 10 mg/kg
plasma LH levels ([2]; various doses, s.c. for 14 days): dose-dependent suppression

N#Cc1ccc(N2[C@@H]3CC[C@H]2CC(NCCc2c[nH]cn2)C3)c2ccccc12 (mixture of isomers) [156AF11-229, 4-{3-[2-(1H-Imidazol-4-yl)ethylamino]-8-azabicyclo[3.2.1]oct-8-yl}naphthalene-1-carbonitrile, dihydrochloride]
EC50 (Androgen AR receptor): 158 nM
Emax (Androgen AR receptor): 44%

CCC(=O)O[C@H]1CC[C@H]2[C@@H]3CCC4=CC(=O)CC[C@]4(C)[C@H]3CC[C@]12C [testosterone propionate]
wet weight of prostate [1, 3]: did not have any effect
wet weight of seminal vesicle [1, 3]: did not have any effect
wet weight of prostate [1, 4]: significant increases
wet weight of seminal vesicle [1, 4]: significant increases
wet weight of levator ani muscle [1, 4]: significant increases
plasma LH levels ([2]; 1 mg/kg, s.c. for 14 days, versus naive rats): restored LH levels to those obtained in naive rats
plasma LH levels ([2]; chronic administration (14 days), 0.1 and 1 mg/kg, versus naive animals): dose dependent reversal

N#Cc1ccc(N2CCC(O)C2)c2ccccc12 (stereo not drawn) [136BG85-2, 4-(3-Hydroxypyrrolidin-1-yl)naphthalene-1-carbonitrile]
EC50 (Androgen AR receptor): 79.4 nM
Emax (Androgen AR receptor): 41%

N#Cc1ccc(N2C3CCC2CC(OC(=O)CCN2CCOCC2)C3)c2ccccc12 (stereo not drawn) [156AF32-246, 3-Morpholin-4-ylpropionic acid endo-8-(4-cyanonaphthalen-1-yl)-8-azabicyclo[3.2.1]oct-3-yl ester, hydrochloride]
EC50 (Androgen AR receptor): 39.8 nM
Emax (Androgen AR receptor): 57%

CC1CCC(C)N1c1ccc([N+](=O)[O-])c2ccccc12 (stereo not drawn)
EC50 (Androgen AR receptor): 7.94 nM
Emax (Androgen AR receptor): 94%

CC1(O)CC2CCC(C1)N2c1ccc(C#N)c2ccccc12 (stereo not drawn) [156AF70-267, 4-(3-Endo-hydroxy-3-exo-methyl-8-azabicyclo[3.2.1]oct-8-yl)naphthalene-1-carbonitrile]
EC50 (Androgen AR receptor): 2 nM
Emax (Androgen AR receptor): 88%

N#Cc1ccc(N2CCCCC2)c2ccccc12 [136BG73-10, 4-Piperidin-1-ylnaphthalene-1-carbonitrile]
EC50 (Androgen AR receptor): 7.94 nM
Emax (Androgen AR receptor): 66%

O=[N+]([O-])c1ccc(N2CCCC2)c2ccccc12 [116BG33, 1-(4-Nitronaphthalen-1-yl)pyrrolidine]
wet weight of prostate [1, 5]: did not have any effect
wet weight of seminal vesicle [1, 5]: did not have any effect
dose at which complete reversal of plasma LH levels is evident [2]: 30 mg/kg
plasma LH levels ([2]; sub-cutaneous, 3, 10, 30 mg/kg, 14 days): reduces LH levels to physiological norms
